# Test results from patent US12390470B2, “1-methylxanthine-based bioactive composition and method of use thereof” (Ingenious Ingredients, LP, priority 2021, dated 2025).
# Values joined by “and” are separate entries in the source; they are usually repeats but may differ in a detail not shown here. Equal entries are not always repeated.
# Tests used:
# [1] = Organ weight (liver, heart), Example 3; assay type: in vivo; settings: mice, 28 days
# Protocol: (§1) Twenty-four 8-week-old male Swiss Albino mice were housed in an animal room at a constant temperature (22±3° C.) and humidity (30%-70%) under a 12:12 h light-dark cycle with standard laboratory diet (Purina 5L79, Rat and Mouse 18% protein; PMI Nutrition International, Brentwood, MO, USA). Distilled water was provided ad libitum. All animal experiments were reviewed and approved by the Institutional Animal Ethical Committee (IAEC) of Radiant Research Services Pvt. Ltd (Bangalore, India). All research was conducted in accordance with the guidelines of the committee for the purpose of control and supervision of experiments on animals.
# (§2) After one week of acclimation, the animals were randomly divided by body weight into three groups (n=8 per group in each test) for oral treatment once a day, at approximately same time each day (±1 hour), for 28 consecutive days: (1) vehicle control or (2) 1-methylxanthine or (3) 1-methylxanthine plus paraxanthine. The dose administered to the mice was calculated using US Food and Drug Administration for human equivalence doses (HED), assuming a human weight of 60 kg. […] Food intake was monitored daily while water intake was ad libitum.
# acetylcholine = experiment: Acetylcholine level in young and old rats; assay type: in vivo
# Protocol: as §1, with “young (6-8 Week) and twenty-four old (14-16 Months)” for “8-week-old male”, “Wistar rats” for “mice”
# as §2, with “body weight and age into six” for “body weight into three”, “age into six groups (n=8” for “weight into three groups (n=8”, “hour), for 10 consecutive days:” for “hour), for 28 consecutive days:”, “to the rat was calculated” for “to the mice was calculated”, “ad libitum. […] Body weight was recorded weekly. […]” for “ad libitum.”
# female wistar rats = settings: rat, in vivo, 14 days
# Protocol: An acute oral toxicity study of 1-Methylxanthine) was conducted in female wistar rats in accordance with OECD 423 guidelines. Rats were administered a single dose of 2,000 mg/kg orally and then observed individually for the first four hours, then over a period of 24 hours and once daily for 14 days. General behavior, adverse effects and mortality were observed throughout the experimental period. Body weights were recorded on test day 0 (prior to administration), day 3, day 7 and day 14. All the animals were necropsied and examined macroscopically. All the surviving animals had gained body weight by day 14 as compared to day 0. […] Based on the results, the median lethal dose of test substance in female rats after single oral treatment is 2,000 mg/kg body weight and is classified as category 5 and safe.
# participants = experiment: Respiratory quotient, placebo-controlled crossover; assay type: in vivo, human
# Protocol: All supplements were orally ingested with 8 fluid ounces of cold tap water. The order of administration for all interventions was randomized using a random allocation software to ensure randomization and to avoid order effects. After ingestion, participants completed all assessments in an identical fashion 30, 60, 90, 120, and 180 minutes after ingestion of their assigned supplement. All study visits took place between 0600-1000 hours. At least 72 hours of rest will take place between each condition.
# The lower the RQ, the more fat that is being oxidized for body energy needs. The closer to 1.0 the more carbohydrate is being burned for energy needs. If numbers are lower more fat is being oxidized.
# participant = experiment: Concentration by Visual Analog Scale; assay type: in vivo, human; set-up: Concentration (Visual Analog Scale): scale not given here
# Protocol: One participant ingested 200 mg dose of 1-methylxanthine (1-MX) orally with 8 fluid ounces of cold tap water. Concentration was measured by Visual Analog Scale (VAS) at baseline, 30, 60, 90, 120 and 180 minutes after ingestion.
# [2] = Person one, time 0, 200 mg oral
# [3] = Person two, time 0, 200 mg oral
compound,measurement,setting,value
"Cn1c(=O)[nH]c2nc[nH]c2c1=O [1-methylxanthine, 1-Methyl-3H-purine-2,6-dione]",Heart weight,[1],188.50 ± 3.12 mg
same,Liver weight,[1],1850.88 ± 39.96 mg
same,acetylcholine level,"acetylcholine; old rats, listed as 1-MX",56.33±3.42 U/ml and 56.33±3.58 U/ml
same,acetylcholine level,acetylcholine; young rats,63.35±4.12 U/ml
same,toxicity classification,female wistar rats,category 5
same,median lethal dose,female wistar rats; po,"2,000 mg/kg body weight"
same,respiratory quotient reduced compared to placebo,participants; 200 mg oral,15%
same,greater fat loss than CA,"participants; 200 mg oral, from respiratory quotient",2.3%
same,Respiratory Quotient MEAN (30-180),participants; Average,0.685
same,Respiratory Quotient MEAN (30-180),participants; Person one,0.676
same,Respiratory Quotient,"participants; Person one, 30 min after ingestion",0.69
same,Respiratory Quotient,"participants; Person one, 60 min",0.66
same,Respiratory Quotient,"participants; Person one, 90 min",0.67
same,Respiratory Quotient,"participants; Person one, 120 min",0.69
same,Respiratory Quotient,"participants; Person one, 180 min",0.67
same,Respiratory Quotient,participants; [2],0.67
same,Respiratory Quotient MEAN (30-180),participants; Person two,0.694
same,Respiratory Quotient,"participants; Person two, 30 min",0.72
same,Respiratory Quotient,"participants; Person two, 60 min",0.71
same,Respiratory Quotient,"participants; Person two, 90 min",0.66
same,Respiratory Quotient,"participants; Person two, 120 min",0.68
same,Respiratory Quotient,"participants; Person two, 180 min",0.70
same,Respiratory Quotient,participants; [3],0.70
same,Concentration (VAS) MEAN (30-180),participant; Average,61.2
same,Concentration (VAS) MEAN (30-180),participant; Person one,54.4
same,Concentration (Visual Analog Scale),"participant; Person one, 30 min",60
same,Concentration (Visual Analog Scale),"participant; Person one, 60 min",61
same,Concentration (Visual Analog Scale),"participant; Person one, 90 min",50
same,Concentration (Visual Analog Scale),"participant; Person one, 120 min",50
same,Concentration (Visual Analog Scale),"participant; Person one, 180 min",51
same,Concentration (Visual Analog Scale),participant; [2],50
same,Concentration (VAS) MEAN (30-180),participant; Person two,68.0
same,Concentration (Visual Analog Scale),"participant; Person two, 30 min",65
same,Concentration (Visual Analog Scale),"participant; Person two, 60 min",65
same,Concentration (Visual Analog Scale),"participant; Person two, 90 min",65
same,Concentration (Visual Analog Scale),"participant; Person two, 120 min",75
same,Concentration (Visual Analog Scale),"participant; Person two, 180 min",70
same,Concentration (Visual Analog Scale),participant; [3],65
